Columns and labels:
[1] = target: T1, Progesterone receptor (Homo sapiens, UniProt P06401); type: functional
T1 sequence (P06401 whole entry): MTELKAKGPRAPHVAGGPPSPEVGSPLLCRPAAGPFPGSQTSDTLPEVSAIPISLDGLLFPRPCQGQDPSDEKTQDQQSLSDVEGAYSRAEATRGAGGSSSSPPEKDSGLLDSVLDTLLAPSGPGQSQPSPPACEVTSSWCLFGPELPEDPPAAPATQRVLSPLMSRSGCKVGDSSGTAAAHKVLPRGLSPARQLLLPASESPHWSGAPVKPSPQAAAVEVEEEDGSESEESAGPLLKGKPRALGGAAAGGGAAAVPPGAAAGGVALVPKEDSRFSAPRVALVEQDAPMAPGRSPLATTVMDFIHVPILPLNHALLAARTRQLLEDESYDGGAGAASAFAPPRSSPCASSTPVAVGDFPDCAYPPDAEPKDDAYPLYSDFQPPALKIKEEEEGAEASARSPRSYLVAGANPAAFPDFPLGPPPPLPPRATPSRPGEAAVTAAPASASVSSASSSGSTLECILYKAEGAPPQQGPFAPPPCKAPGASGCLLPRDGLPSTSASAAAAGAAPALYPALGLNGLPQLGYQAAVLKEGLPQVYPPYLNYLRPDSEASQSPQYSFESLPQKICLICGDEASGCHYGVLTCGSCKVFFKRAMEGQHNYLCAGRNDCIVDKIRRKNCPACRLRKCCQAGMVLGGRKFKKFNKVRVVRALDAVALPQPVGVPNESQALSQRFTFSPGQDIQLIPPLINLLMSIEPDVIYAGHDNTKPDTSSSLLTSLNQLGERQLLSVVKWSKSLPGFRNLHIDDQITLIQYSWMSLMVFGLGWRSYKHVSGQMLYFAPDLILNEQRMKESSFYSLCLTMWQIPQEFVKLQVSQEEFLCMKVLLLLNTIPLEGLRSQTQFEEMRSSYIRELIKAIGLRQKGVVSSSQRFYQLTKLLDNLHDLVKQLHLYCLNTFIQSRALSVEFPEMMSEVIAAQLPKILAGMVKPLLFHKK

[2] = target: D(1A) dopamine receptor (Homo sapiens, UniProt P21728)
[3] = target: T2, Alpha-1A adrenergic receptor (Homo sapiens, UniProt P35348)
T2 sequence (P35348 whole entry): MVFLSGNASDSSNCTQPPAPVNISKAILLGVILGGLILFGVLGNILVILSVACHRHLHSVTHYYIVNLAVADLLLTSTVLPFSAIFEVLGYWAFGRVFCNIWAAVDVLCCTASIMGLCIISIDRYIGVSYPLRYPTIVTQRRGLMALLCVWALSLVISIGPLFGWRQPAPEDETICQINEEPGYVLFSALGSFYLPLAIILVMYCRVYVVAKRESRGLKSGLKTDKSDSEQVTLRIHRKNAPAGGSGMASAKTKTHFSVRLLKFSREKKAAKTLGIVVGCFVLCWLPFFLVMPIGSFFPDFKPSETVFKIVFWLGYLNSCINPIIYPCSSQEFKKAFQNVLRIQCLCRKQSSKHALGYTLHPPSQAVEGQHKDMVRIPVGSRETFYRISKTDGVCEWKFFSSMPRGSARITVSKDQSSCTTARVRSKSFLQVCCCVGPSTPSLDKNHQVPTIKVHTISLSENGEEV

[4] = target: Voltage-dependent N-type calcium channel subunit alpha-1B (Rattus norvegicus, UniProt Q02294); type: functional
Chain of Voltage-dependent N-type calcium channel subunit alpha-1B (Q02294 whole entry): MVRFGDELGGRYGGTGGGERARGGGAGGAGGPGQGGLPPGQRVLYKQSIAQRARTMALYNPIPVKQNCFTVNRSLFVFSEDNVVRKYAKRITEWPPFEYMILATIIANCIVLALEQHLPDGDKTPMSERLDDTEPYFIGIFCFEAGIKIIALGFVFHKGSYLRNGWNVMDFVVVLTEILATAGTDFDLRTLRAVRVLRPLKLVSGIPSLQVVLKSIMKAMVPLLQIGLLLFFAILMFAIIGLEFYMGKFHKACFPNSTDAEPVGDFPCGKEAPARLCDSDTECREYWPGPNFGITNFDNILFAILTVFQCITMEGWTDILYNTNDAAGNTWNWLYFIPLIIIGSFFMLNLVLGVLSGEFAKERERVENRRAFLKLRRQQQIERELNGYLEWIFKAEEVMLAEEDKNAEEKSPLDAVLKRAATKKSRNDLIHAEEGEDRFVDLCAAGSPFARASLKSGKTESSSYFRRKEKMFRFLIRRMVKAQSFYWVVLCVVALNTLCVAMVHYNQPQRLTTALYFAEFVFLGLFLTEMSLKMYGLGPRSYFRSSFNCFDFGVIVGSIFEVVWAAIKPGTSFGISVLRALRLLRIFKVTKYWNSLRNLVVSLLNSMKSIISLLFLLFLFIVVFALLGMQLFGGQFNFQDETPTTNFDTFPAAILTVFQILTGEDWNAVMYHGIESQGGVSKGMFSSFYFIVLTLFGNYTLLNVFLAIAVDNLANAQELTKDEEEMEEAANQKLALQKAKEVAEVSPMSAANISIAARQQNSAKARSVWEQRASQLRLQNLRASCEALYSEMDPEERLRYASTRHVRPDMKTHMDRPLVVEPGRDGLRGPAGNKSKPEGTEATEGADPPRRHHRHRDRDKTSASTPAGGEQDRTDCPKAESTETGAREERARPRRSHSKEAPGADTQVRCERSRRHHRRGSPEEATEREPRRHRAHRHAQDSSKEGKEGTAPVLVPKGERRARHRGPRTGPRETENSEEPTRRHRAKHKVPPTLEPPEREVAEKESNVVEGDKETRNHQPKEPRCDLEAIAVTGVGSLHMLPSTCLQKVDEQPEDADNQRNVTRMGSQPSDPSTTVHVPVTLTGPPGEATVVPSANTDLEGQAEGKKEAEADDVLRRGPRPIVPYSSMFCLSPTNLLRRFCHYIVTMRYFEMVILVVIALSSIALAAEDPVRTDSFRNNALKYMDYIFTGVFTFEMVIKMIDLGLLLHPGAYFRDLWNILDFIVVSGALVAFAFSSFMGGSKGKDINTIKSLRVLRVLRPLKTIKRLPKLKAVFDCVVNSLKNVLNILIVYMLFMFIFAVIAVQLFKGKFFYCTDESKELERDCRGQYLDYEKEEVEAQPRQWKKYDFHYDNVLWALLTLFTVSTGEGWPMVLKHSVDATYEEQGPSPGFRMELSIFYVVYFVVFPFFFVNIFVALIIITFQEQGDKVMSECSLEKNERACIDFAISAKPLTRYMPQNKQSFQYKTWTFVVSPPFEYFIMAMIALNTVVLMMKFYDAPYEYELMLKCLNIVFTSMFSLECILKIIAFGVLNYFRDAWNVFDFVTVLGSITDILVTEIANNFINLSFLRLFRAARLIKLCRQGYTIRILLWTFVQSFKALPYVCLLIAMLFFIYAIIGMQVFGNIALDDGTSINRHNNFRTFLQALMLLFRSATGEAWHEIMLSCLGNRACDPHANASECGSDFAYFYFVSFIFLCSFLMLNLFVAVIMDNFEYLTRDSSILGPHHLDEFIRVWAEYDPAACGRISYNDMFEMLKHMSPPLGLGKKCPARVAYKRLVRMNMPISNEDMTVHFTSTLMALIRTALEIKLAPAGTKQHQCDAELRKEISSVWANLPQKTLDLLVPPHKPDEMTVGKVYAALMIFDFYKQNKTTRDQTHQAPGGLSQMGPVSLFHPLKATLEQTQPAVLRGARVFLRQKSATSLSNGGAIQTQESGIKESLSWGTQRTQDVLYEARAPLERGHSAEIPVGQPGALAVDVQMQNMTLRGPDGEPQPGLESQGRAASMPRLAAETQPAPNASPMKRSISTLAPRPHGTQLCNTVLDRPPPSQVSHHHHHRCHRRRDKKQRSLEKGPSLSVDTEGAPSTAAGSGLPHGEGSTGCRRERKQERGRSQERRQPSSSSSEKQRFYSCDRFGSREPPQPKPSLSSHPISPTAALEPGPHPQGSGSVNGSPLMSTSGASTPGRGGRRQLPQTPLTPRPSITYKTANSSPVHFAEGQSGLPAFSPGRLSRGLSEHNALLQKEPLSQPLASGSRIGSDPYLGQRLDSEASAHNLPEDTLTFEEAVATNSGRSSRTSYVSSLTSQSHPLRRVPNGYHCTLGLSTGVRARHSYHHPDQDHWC

[5] = target: Glucagon receptor (Homo sapiens, UniProt P47871)
Chain of Glucagon receptor (P47871 whole entry): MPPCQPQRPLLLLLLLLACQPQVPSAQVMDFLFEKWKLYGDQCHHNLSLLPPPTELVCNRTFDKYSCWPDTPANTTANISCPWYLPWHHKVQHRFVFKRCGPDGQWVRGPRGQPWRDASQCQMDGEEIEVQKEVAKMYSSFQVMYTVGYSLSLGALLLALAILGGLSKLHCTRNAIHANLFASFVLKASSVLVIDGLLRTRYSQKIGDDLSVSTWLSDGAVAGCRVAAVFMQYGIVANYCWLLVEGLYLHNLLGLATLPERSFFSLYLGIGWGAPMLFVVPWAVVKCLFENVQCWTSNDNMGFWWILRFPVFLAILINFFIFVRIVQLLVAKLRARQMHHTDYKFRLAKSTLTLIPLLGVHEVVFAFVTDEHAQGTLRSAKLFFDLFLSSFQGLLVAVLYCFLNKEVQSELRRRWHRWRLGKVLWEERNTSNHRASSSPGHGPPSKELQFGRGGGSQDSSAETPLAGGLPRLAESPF

[6] = target: Estrogen receptor beta (Homo sapiens, UniProt Q92731)
Chain of Estrogen receptor beta (Q92731 whole entry): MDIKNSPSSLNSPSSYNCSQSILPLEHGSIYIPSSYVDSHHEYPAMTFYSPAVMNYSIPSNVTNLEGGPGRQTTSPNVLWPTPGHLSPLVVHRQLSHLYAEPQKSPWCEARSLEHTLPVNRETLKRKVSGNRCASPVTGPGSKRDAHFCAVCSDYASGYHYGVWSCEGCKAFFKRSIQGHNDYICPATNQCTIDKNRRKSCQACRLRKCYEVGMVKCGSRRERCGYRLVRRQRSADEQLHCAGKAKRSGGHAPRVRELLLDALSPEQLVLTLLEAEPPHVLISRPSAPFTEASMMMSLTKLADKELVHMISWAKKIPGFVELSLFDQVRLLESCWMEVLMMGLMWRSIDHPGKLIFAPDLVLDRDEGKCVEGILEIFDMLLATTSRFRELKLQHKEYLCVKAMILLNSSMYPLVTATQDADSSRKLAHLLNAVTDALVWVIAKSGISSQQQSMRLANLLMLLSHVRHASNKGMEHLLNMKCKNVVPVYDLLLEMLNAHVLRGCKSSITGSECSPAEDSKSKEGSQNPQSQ

[7] = target: Mu-type opioid receptor (Homo sapiens, UniProt P35372)
Chain of Mu-type opioid receptor (P35372 whole entry): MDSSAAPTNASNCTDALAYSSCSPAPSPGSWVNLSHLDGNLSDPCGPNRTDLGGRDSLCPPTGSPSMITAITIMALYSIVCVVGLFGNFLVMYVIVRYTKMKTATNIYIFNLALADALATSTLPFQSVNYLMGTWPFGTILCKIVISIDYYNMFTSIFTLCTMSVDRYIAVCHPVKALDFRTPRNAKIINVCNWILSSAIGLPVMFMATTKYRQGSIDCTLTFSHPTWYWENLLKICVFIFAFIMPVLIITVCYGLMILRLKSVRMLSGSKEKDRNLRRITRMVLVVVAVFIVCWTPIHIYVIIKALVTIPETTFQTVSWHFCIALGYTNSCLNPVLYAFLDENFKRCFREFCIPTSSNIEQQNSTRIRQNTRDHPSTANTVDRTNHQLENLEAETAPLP

[8] = target: Beta-3 adrenergic receptor (Homo sapiens, UniProt P13945)
Chain of Beta-3 adrenergic receptor (P13945 whole entry): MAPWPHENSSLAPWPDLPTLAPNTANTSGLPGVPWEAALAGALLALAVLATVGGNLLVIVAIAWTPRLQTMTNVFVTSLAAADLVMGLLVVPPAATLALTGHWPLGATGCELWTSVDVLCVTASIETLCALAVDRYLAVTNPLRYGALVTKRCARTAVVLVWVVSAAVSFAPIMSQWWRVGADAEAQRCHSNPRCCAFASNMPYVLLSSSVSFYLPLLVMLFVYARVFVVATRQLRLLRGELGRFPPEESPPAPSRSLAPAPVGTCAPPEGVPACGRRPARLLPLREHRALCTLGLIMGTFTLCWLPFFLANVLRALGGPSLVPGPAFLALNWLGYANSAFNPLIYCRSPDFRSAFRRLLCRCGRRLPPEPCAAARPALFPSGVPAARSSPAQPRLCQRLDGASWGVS

[9] = target: Sodium-dependent serotonin transporter (Homo sapiens, UniProt P31645)
Chain of Sodium-dependent serotonin transporter (P31645 whole entry): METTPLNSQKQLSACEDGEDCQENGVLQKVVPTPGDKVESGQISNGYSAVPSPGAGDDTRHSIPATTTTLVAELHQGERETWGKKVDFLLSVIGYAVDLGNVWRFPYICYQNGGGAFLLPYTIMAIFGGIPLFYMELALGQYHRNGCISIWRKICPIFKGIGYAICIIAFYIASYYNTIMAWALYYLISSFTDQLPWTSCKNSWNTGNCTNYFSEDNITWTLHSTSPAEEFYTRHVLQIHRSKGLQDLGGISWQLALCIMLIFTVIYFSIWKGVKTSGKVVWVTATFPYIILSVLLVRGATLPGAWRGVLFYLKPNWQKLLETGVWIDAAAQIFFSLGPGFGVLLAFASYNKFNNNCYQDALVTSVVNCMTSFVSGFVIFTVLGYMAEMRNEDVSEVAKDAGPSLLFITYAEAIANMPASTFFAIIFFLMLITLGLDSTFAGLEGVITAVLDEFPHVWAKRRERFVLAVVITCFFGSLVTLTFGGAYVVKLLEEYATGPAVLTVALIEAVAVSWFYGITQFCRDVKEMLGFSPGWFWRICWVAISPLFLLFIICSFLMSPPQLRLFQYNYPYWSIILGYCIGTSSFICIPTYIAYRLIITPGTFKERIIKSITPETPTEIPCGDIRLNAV

[10] = target: T3, 5-hydroxytryptamine receptor 1A (Homo sapiens, UniProt P08908); type: functional, cell-based
T3 sequence (P08908 whole entry): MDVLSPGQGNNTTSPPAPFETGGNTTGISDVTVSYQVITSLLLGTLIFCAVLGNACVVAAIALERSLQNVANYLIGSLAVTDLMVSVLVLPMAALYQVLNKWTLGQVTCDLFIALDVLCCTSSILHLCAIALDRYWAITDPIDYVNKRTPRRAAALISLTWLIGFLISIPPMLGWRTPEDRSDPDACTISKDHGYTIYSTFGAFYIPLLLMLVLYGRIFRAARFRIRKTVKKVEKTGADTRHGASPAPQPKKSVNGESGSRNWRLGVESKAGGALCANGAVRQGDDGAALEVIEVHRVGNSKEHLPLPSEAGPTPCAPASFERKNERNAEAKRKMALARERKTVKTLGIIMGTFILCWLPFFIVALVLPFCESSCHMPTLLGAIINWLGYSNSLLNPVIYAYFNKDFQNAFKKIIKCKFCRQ

[11] = target: T4, Alpha-2A adrenergic receptor (Homo sapiens, UniProt P08913)
T4 sequence (P08913 whole entry): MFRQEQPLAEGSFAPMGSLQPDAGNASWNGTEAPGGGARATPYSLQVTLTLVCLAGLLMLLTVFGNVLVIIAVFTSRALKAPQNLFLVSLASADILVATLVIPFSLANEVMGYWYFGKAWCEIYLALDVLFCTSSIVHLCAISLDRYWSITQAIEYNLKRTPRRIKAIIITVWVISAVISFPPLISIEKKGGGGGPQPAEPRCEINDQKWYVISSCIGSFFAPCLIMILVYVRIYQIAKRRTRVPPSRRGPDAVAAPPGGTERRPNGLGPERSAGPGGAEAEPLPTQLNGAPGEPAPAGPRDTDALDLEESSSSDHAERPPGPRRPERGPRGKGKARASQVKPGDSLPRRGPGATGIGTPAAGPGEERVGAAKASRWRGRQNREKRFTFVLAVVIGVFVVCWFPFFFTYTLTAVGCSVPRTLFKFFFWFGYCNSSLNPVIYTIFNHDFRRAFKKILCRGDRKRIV

[12] = target: Histamine H2 receptor (Homo sapiens, UniProt P25021)
Also: assay procedure not described here.

SMILES	AC50 [1] [µM]	AC50 [2] [µM]	AC50 [3] [µM]	AC50 [4] [µM]	AC50 [5] [µM]	AC50 [6] [µM]	AC50 [7] [µM]	AC50 [8] [µM]	AC50 [9] [µM]	AC50 [10] [µM]	AC50 [11] [µM]	AC50 [12] [µM]
CN(C)CC/C=C1\c2ccccc2CSc2ccccc21 [DOTHIEPIN]	> 30	–	–	–	–	–	–	–	–	–	–	–
Nc1ccncc1N [AMIFAMPRIDINE]	–	> 30	> 30	–	–	–	–	–	–	–	–	–
COc1cc2nc(N3CCN(C(=O)c4ccco4)CC3)nc(N)c2cc1OC [PRAZOSIN]	–	–	–	> 10	> 30	> 30	4.1	> 30	–	–	–	–
C=CCN1C[C@H](C(=O)N(CCCN(C)C)C(=O)NCC)C[C@@H]2c3cccc4[nH]cc(c34)C[C@H]21 [CABERGOLINE]	> 10	–	–	–	–	–	> 30	–	23.4	–	–	–
CCCC1O[C@@H]2C[C@H]3[C@@H]4CCC5=CC(=O)C=C[C@]5(C)[C@H]4[C@@H](O)C[C@]3(C)[C@]2(C(=O)CO)O1 (stereo partly specified) [BUDESONIDE]	–	–	–	–	–	–	> 30	–	–	> 10	–	–
O=[N+]([O-])O[C@@H]1CO[C@H]2[C@@H]1OC[C@@H]2O [ISOSORBIDE MONONITRATE]	–	–	–	> 10	> 30	> 30	> 30	> 30	> 10	> 10	> 10	> 10
COc1ccccc1N1CCN(CC(O)COc2cccc3ccccc23)CC1 (stereo unspecified) [NAFTOPIDIL]	> 30	> 30	0.02	–	–	–	–	–	–	1.2	–	–
Cc1cc(C)c(NC(=O)CN(CC(=O)O)CC(=O)O)c(C)c1Br [MEBROFENIN]	–	> 30	> 30	–	–	–	–	–	–	–	–	–
CC[C@H]1CN2CCc3cc(OC)c(OC)cc3[C@@H]2C[C@@H]1C[C@H]1NCCc2cc(OC)c(OC)cc21 [EMETINE]	> 30	> 30	2.51	–	–	–	18	–	–	–	–	–
CCC(CC)(CC(=O)Nc1cccc(/C=C/c2nc(C3CCC3)cs2)c1)C(=O)O	> 30	–	–	–	–	–	–	–	> 30	–	–	–
Cc1oc(=O)oc1CN1CCN(c2cc3c(cc2F)c(=O)c(C(=O)O)c2n3C(C)S2)CC1 (stereo unspecified) [PRULIFLOXACIN]	–	> 30	> 30	–	–	–	–	–	–	–	–	–
COc1ccc(C(=O)Nc2ccccc2CCC2CCCCN2C)cc1 (stereo unspecified) [ENCAINIDE]	–	–	–	> 10	> 30	> 30	> 30	> 30	> 10	> 10	> 10	16.2
CCCCCNC(=N)N/N=C/c1c[nH]c2ccc(OC)cc12 [TEGASEROD]	21	–	–	–	> 30	> 30	2.8	6.08	3.47	0.87	0.31	–
C=CCCCCCCCCC(=O)O [UNDECYLENIC ACID]	–	> 30	> 30	–	–	–	–	–	–	–	–	–
CC[C@@H](C(N)=O)N1CCCC1=O	> 30	–	–	–	–	–	–	–	> 30	> 30	–	–
O=[N+]([O-])c1cn2c(n1)OC[C@@H](OCc1ccc(OC(F)(F)F)cc1)C2 [PRETOMANID]	–	–	–	> 10	> 30	–	> 10	> 30	> 10	–	> 10	> 10
CN(C)CCC=C1c2ccccc2C=Cc2ccccc21 [CYCLOBENZAPRINE]	–	–	–	> 10	> 30	> 30	> 10	> 30	–	> 10	–	–
CCOc1ccc(Cc2cc([C@@H]3O[C@H](CO)[C@@H](O)[C@H](O)[C@H]3O)ccc2Cl)cc1 [DAPAGLIFLOZIN]	–	–	–	> 10	–	–	> 30	> 30	–	–	8.66	> 10
CCOc1ccccc1OCC1CNCCO1 (stereo unspecified) [VILOXAZINE]	–	–	–	> 10	> 30	> 30	> 10	> 30	–	> 10	> 10	> 10
CN(C)CCc1c[nH]c2ccc(C[C@H]3COC(=O)N3)cc12 [ZOLMITRIPTAN]	> 30	–	–	–	–	–	–	–	> 30	–	–	–

From ChEMBL document CHEMBL5291721, “A preclinical secondary pharmacology resource illuminates target-adverse drug reaction associations of marketed drugs” (Nat Commun, 2023)
